One may read the melting point as the temperature, or range, at which the solid turns liquid. The term logD denotes lipophilicity at a set pH, counting ionised and neutral species. A higher logD goes with a more lipophilic compound. In general, solubility refers to the concentration that dissolves in the medium under given conditions. The low end stands for little dissolved substance, the high end for much dissolved substance. A word on the IC50: it is the concentration that inhibits the measured activity by half.

In brackets after ≈: the same amount, converted by molar mass.

A short description of one series: physchem. The settings on record: octanol/phosphate buffer, pH 7.4.
Series [1] is described as follows: Equilibrium solubility in phosphate buffer, pH 7.4. In kind it is physicochemical. The settings on record: aqueous buffer, thermodynamic from solid, phosphate buffer pH 7.4, shaken overnight at room temperature, LC-MS/MS. As to the method: Equilibrium Solubility in Phosphate Buffer, pH 7.4:
The equilibrium solubility of test articles was measured in pH 7.4 aqueous buffers. […] At least 1 mg of powder for each test article was combined with 1 mL of buffer to make a≥1 mg/mL mixture. These samples were shaken on a Thermomixer® overnight at room temperature. The samples were then centrifuged for 10 minutes at 10,000 rpm. […] Standard concentrations ranged from 1.0 μM to 1.0 nM.

In a further series the target is Aldose Reductase (Homo sapiens, UniProt P15121). The series can be described thus: Aldose reductase enzymatic inhibition (micro plate assay, D-glyceraldehyde and NADPH, absorbance at 340 nm). In kind it is biochemical. The settings on record: D-glyceraldehyde and NADPH as substrate; 0.1 nm to 10 uM. As to the method: Aldose Reductase Enzymatic Inhibition:
All compounds and Zopolrestat were tested individually in a micro plate assay for AR inhibition using D-glyceraldehyde and NADPH as substrate and the absorbance changes at 340 nm was monitored. % Inhibition was calculated for ARIs at concentration ranging 0.1 nm to 10 uM.

The conditions of series [2]: positive control, octanol/buffer pH 7.4; cited from earlier work.

Description for physchem: Octanol/Buffer Partition Coefficient (Log D) at pH 7.4:
The octanol/buffer partition coefficient of three test articles was measured at pH 7.4. The pH 7.4 buffer was prepared by combining 50 mL of 0.2 M solution of KH2PO4 with 150 mL of dH2O, and then adjusting to pH 7.4 with 10 N NaOH. In a single incubation, 15 μL of a 10 mM DMSO solution of each test article (100 μM) was added to test tubes which contained 0.75 mL of octanol and 0.75 mL of pH 7.4 phosphate buffer. Testosterone was also introduced to each tube as an internal control, also at a dosing concentration of 100 μM. These samples were gently mixed on a benchtop rotator for 1 hour at room temperature. The tubes were then removed from the rotator and the aqueous and organic phases were allowed to separate for 1 hour. An aliquot of the organic layer was taken and diluted 200-fold into a mixture of 1:1 buffer:acetonitrile (ACN). An aliquot of the aqueous layer was taken and diluted 2-fold, 10-fold, and 200-fold into a mixture of 1:1 buffer:ACN. All samples were assayed by LC-MS/MS using electrospray ionization.

For `O=C(O)Cc1nn(Cc2nc3cc(C(F)(F)F)ccc3s2)c(=O)c2c(Cl)sc(Cl)c12` [Compound VII, 2-(5,7-dichloro-4-oxo-3-((5-(trifluoromethyl)benzo[d]thiazol-2-yl)methyl)-3,4-dihydrothieno[3,4-d]pyridazin-1-yl)acetic acid], the melting point lay within 205 to 207 °C.
As to `O=C(O)Cc1nn(Cc2nc3cc(C(F)(F)F)ccc3s2)c(=O)c2cscc12` [Compound XII, 2-(4-oxo-3-((5-(trifluoromethyl)benzo[d]thiazol-2-yl)methyl)-3,4-dihydrothieno[3,4-d]pyridazin-1-yl)acetic acid], in the series “physchem”, the logD is -0.09. In series [1], the solubility worked out at 970 µg/mL (≈ 2280 µM).
`O=C(O)Cc1nn(Cc2nc3cc(F)ccc3s2)c(=O)c2cscc12` [Compound XIV, 2-(3-((5-fluorobenzo[d]thiazol-2-yl)methyl)-4-oxo-3,4-dihydrothieno[3,4-d]pyridazin-1-yl)acetic acid] showed a melting point of 172 to 173 °C. In addition, the midpoint of inhibition against Aldose Reductase, the IC50, lay at 60 nM. The compound further showed a logD in the series “physchem” of -0.87. Besides, the solubility in series [1] was 650 µg/mL (≈ 1730 µM).
In turn, `O=C(O)Cc1nn(Cc2nc3ccccc3s2)c(=O)c2cscc12` [Compound XVI, 2-(3-(benzo[d]thiazol-2-ylmethyl)-4-oxo-3,4-dihydrothieno[3,4-d]pyridazin-1-yl)acetic acid] displayed a melting point of 172 to 173 °C.
The compound `O=C(O)Cc1nn(Cc2nc3cc(Cl)ccc3s2)c(=O)c2cscc12` [Compound XX, 2-(3-((5-chlorobenzo[d]thiazol-2-yl)methyl)-4-oxo-3,4-dihydrothieno[3,4-d]pyridazin-1-yl)acetic acid] had a melting point of 184 to 185 °C. Further, the IC50 against Aldose Reductase turned out to be 35 nM. The log distribution coefficient (logD) in “physchem” is -0.35. For the same compound, the solubility in series [1] came out at 590 µg/mL (≈ 1510 µM).
On to `CC(C)(C)OC(=O)Cc1nn(Cc2cc3cc(Cl)ccc3o2)c(=O)c2cscc12` [Compound XXIII, tert-butyl 2-(3-((5-chlorobenzofuran-2-yl)methyl)-4-oxo-3,4-dihydrothieno[3,4-d]pyridazin-1-yl)acetate], for which the melting point lay in the range of 117 to 118 °C.
`O=C(O)Cc1nn(Cc2cc3cc(Cl)ccc3o2)c(=O)c2cscc12` [Compound XXIV, 2-(3-((5-chlorobenzofuran-2-yl)methyl)-4-oxo-3,4-dihydrothieno[3,4-d]pyridazin-1-yl)acetic acid]: the melting point is 154 to 155 °C.
For `O=C(O)Cc1nn(Cc2cc3ccccc3o2)c(=O)c2cscc12` [Compound XXVI, 2-(3-(benzofuran-2-ylmethyl)-4-oxo-3,4-dihydrothieno[3,4-d]pyridazin-1-yl)acetic acid], the melting point lay in the range of 158 to 159 °C. The same compound had an IC50 against Aldose Reductase of 57 nM. The logD in “physchem” was -0.86. In addition, the solubility in series [1] is 790 µg/mL (≈ 2320 µM).
Take `C[C@]12CC[C@H]3[C@@H](CCC4=CC(=O)CC[C@@]43C)[C@@H]1CC[C@@H]2O` [Testosterone]: the “Log D (published/known)” value in series [2] is given as 3.0-3.4.
